The format of data set [1] is in vitro ADME. On the procedure: Plecanatide and SP-333 were incubated in simulated intestinal fluid (SIF) for 6-24 h. Inactivated SIF was used as a control. Following the treatment, samples were analyzed by HPLC by cGMP production in T84 cells. […] The active metabolite, SP-338 was characterized by MS and MS/MS and identified to be formed via removal of carboxyl terminal leucine possibly due to cleavage by carboxypeptidases.

For data set [2], the target named is T1, GC-C Receptor (Homo sapiens, UniProt P25092).
T1 construct: endogenous in cells; host or cells: T84 human colon carcinoma cells
T1 sequence (P25092 24-1073): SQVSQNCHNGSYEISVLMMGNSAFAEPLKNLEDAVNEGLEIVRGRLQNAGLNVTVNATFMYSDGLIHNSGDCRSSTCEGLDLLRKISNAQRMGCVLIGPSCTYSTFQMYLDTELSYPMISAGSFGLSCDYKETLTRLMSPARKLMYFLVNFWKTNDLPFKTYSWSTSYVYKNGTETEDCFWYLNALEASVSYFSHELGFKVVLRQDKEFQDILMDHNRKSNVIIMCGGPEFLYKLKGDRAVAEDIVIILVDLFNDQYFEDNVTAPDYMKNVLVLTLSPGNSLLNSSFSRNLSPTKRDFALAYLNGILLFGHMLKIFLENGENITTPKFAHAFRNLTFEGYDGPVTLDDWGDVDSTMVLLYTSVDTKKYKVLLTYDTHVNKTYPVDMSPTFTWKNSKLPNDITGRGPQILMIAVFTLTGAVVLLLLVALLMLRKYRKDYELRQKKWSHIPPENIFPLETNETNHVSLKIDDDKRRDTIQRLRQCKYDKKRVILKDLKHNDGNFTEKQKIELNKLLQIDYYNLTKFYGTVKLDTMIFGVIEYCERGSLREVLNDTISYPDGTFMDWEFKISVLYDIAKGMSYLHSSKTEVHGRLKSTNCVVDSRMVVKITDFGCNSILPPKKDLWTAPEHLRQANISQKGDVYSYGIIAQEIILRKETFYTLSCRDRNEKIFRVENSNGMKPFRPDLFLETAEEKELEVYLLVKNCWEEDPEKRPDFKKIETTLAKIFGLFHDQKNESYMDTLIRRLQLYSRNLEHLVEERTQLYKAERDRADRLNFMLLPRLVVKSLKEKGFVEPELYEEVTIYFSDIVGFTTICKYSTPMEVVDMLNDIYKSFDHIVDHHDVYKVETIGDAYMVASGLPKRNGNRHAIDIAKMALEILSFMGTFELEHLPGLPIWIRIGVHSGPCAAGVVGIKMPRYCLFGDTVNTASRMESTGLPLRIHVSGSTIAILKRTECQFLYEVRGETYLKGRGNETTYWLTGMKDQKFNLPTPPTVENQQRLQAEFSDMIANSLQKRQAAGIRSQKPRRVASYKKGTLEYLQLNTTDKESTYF
As to the kind of experiment: Cyclic GMP stimulation assay in T84 cells. The format is cell-based. Here is the method: The potency of test peptides to stimulate cGMP synthesis in T84 cells was assayed by a published procedure (Shailubhai et al. 2000). Briefly, confluent monolayers of T-84 cells in 24-well plates were washed twice with 250 μl of DMEM containing 50 mM HEPES (pH 7.4), pre-incubated at 37° C. for 10 min with 250 μl of DMEM containing 50 mM HEPES (pH 7.4) and 1 mM isobutylmethylxanthine (IBMX), followed by incubation with test peptide for 30 min. The medium was aspirated, and the reaction was terminated by the addition of 3% perchloric acid. Following centrifugation, and neutralization with 0.1 N NaOH, the resulting supernatant was used directly for measurements of intracellular cGMP using an ELISA kit (Caymen Chemical, Ann Arbor, Mich.). Results are expressed as pmol of cGMP/mg of protein in the cell extracts.

Data set [3] deals with Ki-67 labeling of crypt epithelial cells. As to the kind of experiment: Ki-67 labeling in large bowel cross sections, DSS-induced colitis in BDF-1 mice. It is filed as in vivo, mouse. The text has this: A total of 40 samples were chosen for analysis of MPO activity and Ki-67 labeling from the treatment groups that received SP-333, its vehicle control (0.1M phosphate buffer, pH 7) and the reference compound (5-ASA). A random number generator (www.random.org) was employed to select samples from these groups (7 from each of the SP-333-recipient groups and 6 from each of the vehicle and 5-ASA groups).
Employing standard procedures, two non-serial sections from each animal, were de-waxed in xylene and rehydrated in graded alcohols to PBS (pH 7.4). Endogenous peroxidase was blocked by incubation in 0.3% […] for 30 min. Antigen retrieval was performed by placing the slides in 1 L of citrate buffer (pH 6) and microwaving at high power for 20 minutes. After cooling for 15 minutes, sections were incubated with 10% normal goat serum for 30 minutes to block non-specific binding Primary antibody (mouse monoclonal IgG, clone MIB-1, Dako) at 1/50 dilution was added and incubated for 1 hour at room temperature. Sections were washed and incubated with biotinylated secondary IgG antibody (1/200 dilution; Vector Labs Inc.), for 45 minutes at room temperature. Subsequently, slides were washed and incubated with ABC Elite reagents (Vector Labs Inc.), for 30 minutes at room temperature. […] Sections were counterstained with thionine, dehydrated and mounted.

Bridge positions count the residues as written; N and C are the ends. Square brackets hold non-standard residues; d marks the D form. Peptide text beside a SMILES is read from it.

For orientation: EC50 means the concentration needed to bring the measured effect to its halfway point.

Turning to `CC(C)C[C@@H]1NC(=O)[C@H](CCC(=O)O)NC(=O)[C@@H](NC(=O)[C@H](CCC(=O)O)NC(=O)[C@H](CC(=O)O)NC(=O)[C@H](N)CC(N)=O)CSSC[C@@H]2NC(=O)[C@H](C)NC(=O)[C@H](C(C)C)NC(=O)[C@H](CC(N)=O)NC(=O)[C@H](C(C)C)NC(=O)[C@H](CSSC[C@@H](C(=O)N[C@H](CC(C)C)C(=O)O)NC(=O)CNC(=O)[C@H]([C@@H](C)O)NC2=O)NC1=O` [SP-333, dAsn^1-Asp^2-Glu^3-Cys^4-Glu^5-Leu^6-Cys^7-Val^8-Asn^9-Val^10-Ala^11-Cys^12-Thr^13-Gly^14-Cys^15-dLeu^16] (H-[dN]DECELCVNVACTGC[dL]-OH; disulfide 4-12, 7-15; N-terminus and C-terminus assumed), the “stability in simulated gastric and intestinal fluids” value in data set [1] was “stable”. In addition, the “potency to stimulate cGMP in T84 cells” value in data set [2] is given as “dose dependent increase in cGMP”. Besides, the response in data set [2] (30 min with peptide, 1 mM IBMX) was half-maximal at 283 nM (EC50). Also, the “crypts with normal Ki-67 labeling, comparison among groups” value in data set [3] (SP-333 0.005 mg/kg) is given as “greatest percentage of crypts with normal Ki-67 labeling”. For the same compound, the “proportion of Ki-67 positive crypts” value was 60.4±6.96% in data set [3] (SP-333 0.005 mg/kg/day (DSS control 35.3±4.86%)) and 58.7±7.3% in data set [3] (SP-333 0.05 mg/kg/day). The “proportion of crypts with Ki-67 labeling vs DSS treated control” value in data set [3] (SP-333 treated sections) is “larger proportions of crypts with Ki-67 labeling”.
